The values below come from patent US20250368648A1, “MULTI-CYCLIC IRAK AND FLT3 INHIBITING COMPOUNDS AND USES THEREOF” (CHILDREN'S HOSPITAL MEDICAL CENTER, priority 2022, published 2025).

The target of one assay is T1, FLT3 D835H (Homo sapiens, UniProt P36888, D835H).
T1 construct: purchased DiscoverX (KINOMEscan); host or cells: E. coli (T7 phage) or HEK-293
T1 sequence (P36888 27-993 D835H): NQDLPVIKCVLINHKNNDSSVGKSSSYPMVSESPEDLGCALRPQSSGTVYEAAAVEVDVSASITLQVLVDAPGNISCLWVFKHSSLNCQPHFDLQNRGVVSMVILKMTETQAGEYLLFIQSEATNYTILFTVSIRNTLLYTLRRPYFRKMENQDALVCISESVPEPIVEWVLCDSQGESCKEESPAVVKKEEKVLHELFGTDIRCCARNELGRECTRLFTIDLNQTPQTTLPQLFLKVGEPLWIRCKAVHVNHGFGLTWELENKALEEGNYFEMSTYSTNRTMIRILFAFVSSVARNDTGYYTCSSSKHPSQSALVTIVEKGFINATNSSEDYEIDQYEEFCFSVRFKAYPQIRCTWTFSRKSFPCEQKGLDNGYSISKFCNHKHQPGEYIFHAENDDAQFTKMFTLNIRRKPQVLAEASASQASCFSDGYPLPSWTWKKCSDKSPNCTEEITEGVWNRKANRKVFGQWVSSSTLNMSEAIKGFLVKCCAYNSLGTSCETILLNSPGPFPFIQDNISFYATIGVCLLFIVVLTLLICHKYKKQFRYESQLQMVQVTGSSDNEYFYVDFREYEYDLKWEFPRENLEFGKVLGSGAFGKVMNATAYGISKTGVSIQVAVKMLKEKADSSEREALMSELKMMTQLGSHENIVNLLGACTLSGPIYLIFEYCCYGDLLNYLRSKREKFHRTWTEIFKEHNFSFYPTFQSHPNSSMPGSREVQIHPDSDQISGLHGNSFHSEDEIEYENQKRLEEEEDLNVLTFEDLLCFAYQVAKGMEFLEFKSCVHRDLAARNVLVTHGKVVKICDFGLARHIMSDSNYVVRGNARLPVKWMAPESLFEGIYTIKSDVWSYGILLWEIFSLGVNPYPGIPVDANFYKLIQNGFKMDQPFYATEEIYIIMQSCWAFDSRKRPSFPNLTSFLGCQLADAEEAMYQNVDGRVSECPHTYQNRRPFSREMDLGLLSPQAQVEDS
Put plainly: DiscoverX KINOMEscan competition binding, FLT3 D835H. Conditions: no ATP. An excerpt: (§1) Kinase binding data were obtained for various exemplary compounds prepared according to Examples 2-15 using the DiscoverX KINOMEscan® active site-directed competition binding site-directed assay protocol described below. […] As a result, the data report thermodynamic interaction affinities (Kd values), rather than IC50 values that are dependent on ATP concentrations. The assay uses a DNA-tagged version of the protein kinase, and an immobilized ligand bound to a solid support. Compounds that directly or indirectly prevent kinase binding to the immobilized ligand reduce the amount of kinase captured on the solid support, which is detected using an ultra-sensitive qPCR method. Affinity constants reported from the assay have been reported to be independent of the immobilized ligand used that is coupled to the solid support (See supplemental information in Fabian, M. A. et. al., (2005) Nat. […] Wodicka, L. […] Biol. 17, 1241-1249.) Kinase-tagged T7 phage strains were prepared in an E. coli host derived from the BL21 strain. E. coli were grown to log-phase and infected with T7 phage and incubated with shaking at 32° C. until lysis. […] Kds were determined using an 11-point 3-fold compound dilution series with three DMSO control points. […] The kinase concentration in the eluates was measured by qPCR. Binding constants (Kds) were calculated with a standard dose-response curve using the Hill equation. […]

In a further assay the target is T2, FLT3 ITD, F691L (Homo sapiens, UniProt P36888, F691L, form not given).
T2 construct: fused on or other part: DNA tag for qPCR read-out (T7 phage fusion, or DNA-tagged kinase made in HEK-293 cells)
T2 sequence (P36888 1-993 F691L): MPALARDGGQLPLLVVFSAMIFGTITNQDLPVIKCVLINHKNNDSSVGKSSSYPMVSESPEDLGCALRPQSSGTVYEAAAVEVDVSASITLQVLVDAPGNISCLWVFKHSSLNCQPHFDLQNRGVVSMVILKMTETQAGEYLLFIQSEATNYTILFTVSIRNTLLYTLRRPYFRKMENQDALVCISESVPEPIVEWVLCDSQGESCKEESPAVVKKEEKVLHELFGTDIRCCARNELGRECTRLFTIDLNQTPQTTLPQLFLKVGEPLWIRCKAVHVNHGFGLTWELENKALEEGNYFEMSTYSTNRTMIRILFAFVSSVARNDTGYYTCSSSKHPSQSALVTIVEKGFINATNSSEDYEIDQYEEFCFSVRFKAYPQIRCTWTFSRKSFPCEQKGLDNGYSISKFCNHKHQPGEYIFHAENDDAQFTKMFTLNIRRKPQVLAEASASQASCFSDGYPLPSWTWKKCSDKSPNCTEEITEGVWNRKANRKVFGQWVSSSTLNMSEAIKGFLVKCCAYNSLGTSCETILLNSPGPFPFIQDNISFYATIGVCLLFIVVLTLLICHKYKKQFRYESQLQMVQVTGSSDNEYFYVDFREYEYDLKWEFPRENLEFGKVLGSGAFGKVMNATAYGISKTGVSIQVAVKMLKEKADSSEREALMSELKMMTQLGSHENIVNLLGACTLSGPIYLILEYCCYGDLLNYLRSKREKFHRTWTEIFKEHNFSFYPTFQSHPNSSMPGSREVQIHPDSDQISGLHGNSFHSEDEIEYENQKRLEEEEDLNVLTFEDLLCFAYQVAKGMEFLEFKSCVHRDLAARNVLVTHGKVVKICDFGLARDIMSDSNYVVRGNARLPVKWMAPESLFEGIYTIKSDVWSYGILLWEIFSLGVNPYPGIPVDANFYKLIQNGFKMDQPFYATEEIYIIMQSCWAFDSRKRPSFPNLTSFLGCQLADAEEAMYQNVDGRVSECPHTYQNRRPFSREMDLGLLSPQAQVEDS
Briefly: DiscoverX KINOMEscan competition binding, FLT3 ITD, F691L. The following applies: no ATP.
From the text: as §1

On to `COc1cc2ncc(-c3nc(N[C@H]4CNCC[C@@H]4F)c(F)cc3F)n2nc1C1CCC1` [Compound 15a, 6-(6-cyclobutyl-7-methoxyimidazo[1,2-b]pyridazin-3-yl)-3,5-difluoro-N-((3S,4S)-4-fluoropiperidin-3-yl)pyridin-2-amine], for which the Kd is less than 0.17 nM at FLT3 D835H and less than 0.17 nM at FLT3 ITD, F691L.
